Assay results: patent publication US20180028471A1, “CONTINUOUS LOCAL SLOW-RELEASE OF THERAPEUTICS FOR HEAD AND NECK PROBLEMS AND UPPER AERODIGESTIVE DISORDERS” (Board of Supervisors of Louisiana State University and …, priority 2016, published 2018)

Legend:
HNSCC cell lines = experiment: Inhibition of cell proliferation in HNSCC cell lines; assay type: cell-based
Source text: While curcumin can be used to treat these cancers, other compounds that act on these pathways may also be useful in treating these cancers and it should be readily recognized that such compounds could also be delivered by including in the formulations described herein.

[1] = tested on: normal fibroblast cell line CCL110; experiment: Effects on normal fibroblast cell line CCL110 (proliferation); assay type: cell-based; settings: normal fibroblast cell line CCL110, FIG. 1
PCI15a cells = experiment: Modulation of NFκB and Akt/mTOR pathways in PCI15a cells; assay type: cell-based; settings: 10 μM
SCC40 cells = experiment: Modulation of NFκB and Akt/mTOR pathways in SCC40 cells; assay type: cell-based; settings: 10 μM
SCC066 = experiment: Modulation of NFκB and Akt/mTOR pathways in SCC066 cells; assay type: cell-based; settings: 10 μM, 24 and 48 hours
[2] = tested on: normal fibroblast cell line CCL110; experiment: Modulation of NFκB and Akt/mTOR pathways in CCL110 normal fibroblasts; assay type: cell-based; settings: 10 μM, 24 and 48 hours
SCC40 xenografts = experiment: pAkt and pS6 in SCC40 xenografts of treated mice; assay type: in vivo; settings: mice with SCC40 xenografts, FIG. 3B
tumor cells = experiment: Chemoprevention model: pre-treatment before tumor cell injection, tumor volumes; assay type: in vivo, Balb/c nu/nu mice; settings: 10 mg, pre-treated 4 days before tumor cell injection, about three weeks
Description: Balb/c nu/nu mice were randomized into treatment groups. […] Tumors were measured over approximately three weeks. […] ANOVA analysis. […] This also points to its role as a chemopreventive agent rather than a therapeutic agent.

[3] = tested on: TPA-induced tumor promotion on mouse skin; settings: topical application of 10 μmol twice weekly; cited from earlier work
DMBA-induced oral tumors = settings: 10 μmol topically to cheek pouch 3 times/week for 24 weeks; cited from earlier work
[4] = tested on: prostate cancer xenograft; settings: p.o. gavage 5 mg/day, 5 days/week for 4 weeks; cited from earlier work
minimal residual disease = experiment: Model of minimal residual disease (tumor formation, survival); assay type: in vivo
mTOR pathway markers = experiment: Phase 2 biomarker exploratory trial: mTOR pathway markers in tumors and PBMCs; assay type: in vivo; settings: HNSCC patients
Source text: Criteria #1) Biomarker expression in normal tissue should be different from that in high risk tissue. In FIG. 2 we present an analysis of cancer (lanes 5, 6, 11, and 12) and non-cancer (patients with sleep apnea) (lanes1-4 and 7-10) patient samples. The cancer samples include tumors (T) and histologically tumor-free margins (M). […] Criteria #2) Biomarkers can be detected in small tissue specimens. In our studies we have successfully detected by western blots and even by IHC the various Akt/mTOR markers on samples often as small as 5 mm. Criteria #3) Biomarkers can be expressed in a quantity or pattern that can be correlated with the stage of carcinogenesis.

With COc1cc(/C=C/C(=O)CC(=O)/C=C/c2ccc(O)c(OC)c2)ccc1O [curcumin] the “growth inhibitory effects on all HNSCC cell lines tested” value (HNSCC cell lines; all 10 HNSCC cell lines tested to date) was “growth inhibitory effects”, the “cell proliferation at 10 μM” value (HNSCC cell lines; all HNSCC cell lines, 10 μM, FIG. 1) was “inhibition of cell proliferation” and the “growth inhibitory effects at 48 hours” value (HNSCC cell lines; all three HNSCC cell lines, 48 hours) was “significant growth inhibitory effects”. For the same compound, the “concentration giving consistent inhibition of cell proliferation” value (HNSCC cell lines; variety of HNSCC cell lines, in vitro, FIG. 1) was “less than 10 μM”, the “sensitivity of a variety of cell lines” value (HNSCC cell lines) was “consistently sensitive” and the “dose required to see effects” value [1] was 20 to 40 µM. The pNFκB (PCI15a cells; 24 and 48 hours) was “no change”, the pAkt (PCI15a cells; 48 hours) was “down-regulated” and the “pS6 downstream of mTOR” value (PCI15a cells; 48 hours) was “down-regulated”. The Akt/mTOR pathway (SCC40 cells; 24 and 48 hours) was “no change”, the pNFκB (SCC40 cells; after 48 hours) was “down-regulation” and the Akt/mTOR pathway (SCC066) was “did not show any modulation”. For the same compound, the “pNFκB or Akt/mTOR” value [2] was “no decrease”, the pAkt (SCC40 xenografts) was “significant decrease” and the pS6 (SCC40 xenografts) was “significant decrease”. The “tumor volumes versus control (vehicle treated)” value (tumor cells) was “no significant difference”, the “inhibition of the number of tumors per mouse” value [3] was 98% and the “reduction of the number of DMBA-induced oral tumors” value (DMBA-induced oral tumors) was roughly 40%. For the same compound, the “inhibition of growth of prostate cancer xenograft” value [4] was roughly 50%.

In the case of CO[C@H]1C[C@@H]2CC[C@@H](C)[C@@](O)(O2)C(=O)C(=O)N2CCCC[C@H]2C(=O)O[C@H]([C@H](C)C[C@@H]2CC[C@@H](OC(=O)C(C)(CO)CO)[C@H](OC)C2)CC(=O)[C@H](C)/C=C(\C)[C@@H](O)[C@@H](OC)C(=O)[C@H](C)C[C@H](C)/C=C/C=C/C=C/1C [CCI-779, temsirolimus], the survival (minimal residual disease) is reported as “improve survival”, the tumor formation (minimal residual disease) is reported as “inhibit tumor formation” and the “mTOR pathway markers in tumors and PBMCs” value (mTOR pathway markers) is reported as “modulation of these markers”.

With CO[C@H]1C[C@@H]2CC[C@@H](C)[C@@](O)(O2)C(=O)C(=O)N2CCCC[C@H]2C(=O)O[C@H]([C@H](C)C[C@@H]2CC[C@@H](OCCO)[C@H](OC)C2)CC(=O)[C@H](C)/C=C(\C)[C@@H](O)[C@@H](OC)C(=O)[C@H](C)C[C@H](C)/C=C/C=C/C=C/1C [RAD001, everolimus, reference compound] the “sensitivity of a variety of cell lines” value (HNSCC cell lines) was “wide range of sensitivity”.
